# Measured values as given in patent publication US7071226B1, “Amino-functionalized 1,2,4-trioxanes useful as antimalarial agents and process for preparation thereof” (Council of Scientific and Industrial Research, priority 2004, dated 2006).
# Where two headings read alike, the source gives them in different places.
# Assays:
# [1] = test system: multidrug resistant strain of Plasmodium yoelii Nigeriensis; experiment: Antimalarial activity against multidrug resistant P. yoelii in Swiss mice (4-day treatment, observed till day 28); format: in vivo; details: Swiss mice; for responders at 96 mg/kg/day / responders at 48 mg/kg/day: 672 h, read-out: Mice alive on day-28 (converted); for responders at 96 mg/kg/day / Mice alive on day-28 / responders at 48 mg/kg/day: day 0-3
# Protocol: The antimalarial activity of the test compounds was evaluated in rodent using multidrug resistant strain of Plasmodium yoelii Nigeriensis in Swiss mice.
# Random bred Swiss mice of either sex (20±2 gm) were inoculated intraperitoneally with 1×10^5 P. yoelii (MDR) parasites on day zero. Treatments with test compounds were administered to group of 5 mice each at different dose levels ranging between 12–96 mg/kg/day. Treatment was administered in groundnut oil intramuscularly and orally for 4 consecutive days (day 0–3). Blood smears from experimental mice were observed on day 4 and 7, day 10 and thereafter at regular intervals till day 28 or death of animal. Parasitaemia level on day 4 was compared with vehicle control group and percent suppression of parasitaemia in treated groups was calculated. […] The dose at which no parasitaemia develop during the observation period was reported as curative dose.
# [2] = Plasmodium yoelii, po, 96 h, 96 mg/kg/day, oral, day 0-3, in groundnut oil, read-out: % Suppression on Day 4
# [3] = Plasmodium yoelii, po, 96 mg/kg/day, oral
# [4] = 48 mg/kg/day, oral, day 0-3, in groundnut oil
# [5] = Plasmodium yoelii, po, 96 h, 48 mg/kg/day, oral, day 0-3, in groundnut oil, read-out: % Suppression on Day 4
# [6] = 24 mg/kg/day, oral, 24 mg/kg/day
# [7] = 48 mg/kg/day, oral, 48 mg/kg/day
# [8] = Plasmodium yoelii, po, 48 mg/kg/day, oral
# [9] = 24 mg/kg/day, oral, day 0-3, in groundnut oil, 24 mg/kg/day
# [10] = 96 mg/kg/day, im, day 0-3, in groundnut oil
# [11] = Plasmodium yoelii, im, 96 h, 96 mg/kg/day, im, day 0-3, in groundnut oil, read-out: % Suppression on Day 4
# [12] = Plasmodium yoelii, im, 96 mg/kg/day, im
compound,measurement,setting,value
C=C(c1ccc(OC)cc1)C1COC2(CCC(Nc3ccc(OC)cc3)CC2)OO1 (stereo not shown),melting point,,123 to 124 °C
C=C(c1ccccc1)C1COC2(CCC(Nc3ccc(F)cc3)CC2)OO1 (stereo not shown),melting point,,130 to 132 °C
"C=C(c1ccc(-c2ccccc2)cc1)C1COC2(CCC(Nc3ccc(Cl)cc3)CC2)OO1 (stereo not shown) [Compound 4ba, [3-(1-Biphenyl-4-yl-Vinyl)-1,2,5-Trioxa-Spiro[5.5]undec-9-yl]-(4-Chloro-Phenyl)-Amine]",inhibition in vivo at 96 mg/kg/day,[1]; [2],100%
same,responders at 96 mg/kg/day,[1]; [3],100%
"C=C(c1ccc(Cl)cc1)C1COC2(CCC(=O)CC2)OO1 (stereo not shown) [Compound 3c, 3-[1-(4-Chloro-Phenyl)-Vinyl]-1,2,5-Trioxa-Spiro[5.5]undecan-9-one]",inhibition in vivo at 96 mg/kg/day,[1]; [2],100%
same,responders at 96 mg/kg/day,[1]; [3],0%
C=C(c1ccc(Cl)cc1)C1COC2(CCC(Nc3ccc(Cl)cc3)CC2)OO1 (stereo not shown) [Compound 4cc],Mice alive on day-28,"[1]; 24 mg/kg/day, oral",4/5
same,% Suppression on Day 4,"[1]; 24 mg/kg/day, oral, day 0-3, in groundnut oil",100%
same,Mice alive on day-28,"[1]; 48 mg/kg/day, oral",5/5
same,% Suppression on Day 4,[1]; [4],100%
"C=C(c1ccc(OC)cc1)C1COC2(CCC(Nc3ccccc3-c3ccccc3)CC2)OO1 (stereo not shown) [Compound 4dg, Biphenyl-2-yl-{3-[1-(4-methoxy-phenyl)-vinyl]-1,2,5-trioxa-spiro[5.5]undec-9-yl}-amine]",inhibition in vivo at 24 mg/kg/day,"[1]; Plasmodium yoelii, po, 96 h, 24 mg/kg/day, oral, day 0-3, in groundnut oil, read-out: % Suppression on Day 4",91%
same,inhibition in vivo at 48 mg/kg/day,[1]; [5],100%
same,Mice alive on day-28,[1]; [6],1/5
same,Mice alive on day-28,[1]; [7],3/5
"C=C(c1ccc(C)cc1)C1COC2(CCC(Nc3cccc4ccccc34)CC2)OO1 (stereo not shown) [Compound 4eg, Naphthalen-1-yl-[3-(1-p-Tolyl-Vinyl)-1,2,5-Trioxa-Spiro[5.5]undec-9-yl]-Amine]",inhibition in vivo at 96 mg/kg/day,[1]; [2],100%
same,responders at 96 mg/kg/day,[1]; [3],100%
"C=C(c1ccc(OC)cc1)C1COC2(CCC(Nc3cccc4ccccc34)CC2)OO1 (stereo not shown) [Compound 4df, {3-[1-(4-Methoxy-phenyl)-vinyl]-1,2,5-trioxa-spiro[5.5]undec-9-yl}-naphthalen-1-yl-amine]",inhibition in vivo at 48 mg/kg/day,[1]; [5],100%
same,inhibition in vivo at 96 mg/kg/day,[1]; [2],100%
same,responders at 48 mg/kg/day,[1]; [8],40%
same,responders at 96 mg/kg/day,[1]; [3],100%
"C=C(c1ccc(OC)cc1)C1COC2(CCC(Nc3cc(Cl)cc(Cl)c3)CC2)OO1 (stereo not shown) [Compound 4dd, (3,5-Dichloro-Phenyl)-{3-[1-(4-Methoxy-Phenyl)-Vinyl]-1,2,5-Trioxa-Spiro[5.5]undec-9-yl}-Amine]",inhibition in vivo at 96 mg/kg/day,[1]; [2],100%
same,responders at 96 mg/kg/day,[1]; [3],80%
"C=C(c1ccc(C)cc1)C1COC2(CCC(Nc3cc(Cl)cc(Cl)c3)CC2)OO1 (stereo not shown) [Compound 4ed, (3,5-Dichloro-Phenyl)-[3-(1-Tolyl-Vinyl)-1,2,5-Trioxa-Spiro[5.5]undec-9-yl]-Amine]",Mice alive on day-28,"[1]; 24 mg/kg/day, oral",0/5
same,% Suppression on Day 4,[1]; [9],95%
same,% Suppression on Day 4,[1]; [4],100%
same,Mice alive on day-28,[1]; [7],4/5
"C=C(c1ccc(-c2ccccc2)cc1)C1COC2(CCC(Nc3ccccc3C(F)(F)F)CC2)OO1 (stereo not shown) [Compound 4bg, [3-(1-Biphenyl-4-yl-vinyl)-1,2,5-trioxa-spiro[5.5]undec-9-yl]-(2-trifluoromethyl-phenyl)-amine]",inhibition in vivo at 96 mg/kg/day,[1]; [2],100%
same,responders at 96 mg/kg/day,[1]; [3],40%
"C=C(c1ccccc1)C1COC2(CCC(=O)CC2)OO1 (stereo not shown) [Compound 3a, 3-(1-Phenyl-Vinyl)-1,2,5-Trioxaspiro[5.5]undec-9-one]",Mice alive on day-28,"[1]; 96 mg/kg/day, im",0/5
same,% Suppression on Day 4,[1]; [10],99%
"C=C(c1ccc(C)cc1)C1COC2(CCC(Nc3ccccc3)CC2)OO1 (stereo not shown) [Compound 4ea, Phenyl-[3-(1-p-Tolyl-Vinyl)-1,2,5-Trioxa-Spiro[5.5]undec-9-yl]-Amine]",inhibition in vivo at 96 mg/kg/day,[1]; [11],96%
same,responders at 96 mg/kg/day,[1]; [12],0%
same,inhibition in vivo at 96 mg/kg/day,[1]; [2],100%
same,responders at 96 mg/kg/day,[1]; [3],100%
C=C(c1ccccc1)C1COC2(CCC(Nc3ccc4c(c3)-c3ccccc3C4)CC2)OO1 (stereo not shown) [Compound 4ae],Mice alive on day-28,"[1]; 96 mg/kg/day, oral",5/5
same,% Suppression on Day 4,"[1]; 96 mg/kg/day, oral, day 0-3, in groundnut oil",100%
"C=C(c1ccc(-c2ccccc2)cc1)C1COC2(CCC(=O)CC2)OO1 (stereo not shown) [Compound 3b, 3-(1-Biphenyl-4yl-Vinyl)-1,2,5-Trioxaspiro[5.5]undec-9-one]",Mice alive on day-28,"[1]; 96 mg/kg/day, im",1/5
same,% Suppression on Day 4,[1]; [10],100%
C=C(c1ccc(Cl)cc1)C1COC2(CCC(Nc3ccc4c(c3)-c3ccccc3C4)CC2)OO1 (stereo not shown),melting point,,166 to 168 °C
"C=C(c1ccccc1)C1COC2(CCC(Nc3ccc(Cl)cc3)CC2)OO1 (stereo not shown) [Compound 4aa, (4-Chloro-Phenyl)-[3-(1-Phenyl-Vinyl)-1,2,5-Trioxa-Spiro[5.5]undec-9-yl]-Amine]",inhibition in vivo at 96 mg/kg/day,[1]; [11],71%
same,responders at 96 mg/kg/day,[1]; [12],40%
same,inhibition in vivo at 48 mg/kg/day,[1]; [5],100%
same,inhibition in vivo at 96 mg/kg/day,[1]; [2],100%
same,responders at 48 mg/kg/day,[1]; [8],60%
same,responders at 96 mg/kg/day,[1]; [3],100%
"C=C(c1ccc(OC)cc1)C1COC2(CCC(Nc3ccccc3-c3ccccc3)CC2)OO1 (stereo not shown) [Compound 4dh, Biphenyl-2-yl-{3-[1-(4-methoxy-phenyl)-vinyl]-1,2,5-trioxa-spiro[5.5]undec-9-yl}-amine]",% Suppression on Day 4,[1]; [9],100%
same,Mice alive on day-28,[1]; [6],5/5
same,% Suppression on Day 4,[1]; [4],100%
same,Mice alive on day-28,[1]; [7],5/5
